Data taken from publication PMC6219668 (Oncotarget, 2018).
“And” between values parts separate entries of the source, which are not always exact repeats. Identical values can stand only once.

Tests used:
CDK9/cyclin T1 = conditions: cited from earlier work
A-375 = assay: cells; type: cell-based; conditions: Homo sapiens, A-375, 72 h
SK-MEL-28 = assay: cells; type: cell-based; conditions: Homo sapiens, SK-MEL-28, 72 h
HBCx-15 = type: in vivo; conditions: HBCx-15, Breast, TNBC, Rb absent; 125 mg/kg bid × 21
A549 = assay: cells; type: cell-based; conditions: Homo sapiens, A549, 72 h
NCI-H3122 = assay: cells; type: cell-based; conditions: Homo sapiens, NCI-H3122, 72 h
TE-10 [1] = assay: cells; type: cell-based; conditions: Homo sapiens, TE-10, 72 h
VCAP [2] = assay: cells; type: cell-based; conditions: Homo sapiens, 72 h
NCI-H23 = assay: cells; type: cell-based; conditions: Homo sapiens, NCI-H23, 72 h
HPAX1317 = type: in vivo; conditions: HPAX1317, Pancreatic, Rb present; 250 mg/kg qd
SK-MEL-30 = assay: cells; type: cell-based; conditions: Homo sapiens, SK-MEL-30, 72 h
LnCAP [3] = assay: cells; type: cell-based; conditions: Homo sapiens, 72 h
NCI-H1975 [4] = assay: cells; type: cell-based; conditions: Homo sapiens, NCI-H1975, 72 h
TE-5 = assay: cells; type: cell-based; conditions: Homo sapiens, TE-5, 72 h
TE-8 [5] = assay: cells; type: cell-based; conditions: Homo sapiens, TE-8, 72 h
MCF-7 = assay: cells; type: cell-based; conditions: Homo sapiens, MCF7; MCF-7, 72 h
TE-8 [6] = assay: cells; type: cell-based; conditions: Homo sapiens, TE-8, 72 h; remark: listed apart in the source
OE33 = assay: cells; type: cell-based; conditions: Homo sapiens, OE33, 72 h
VCAP [7] = assay: cells; type: cell-based; conditions: Homo sapiens, 72 h; remark: listed apart in the source
NCI-H460 = assay: cells; type: cell-based; conditions: Homo sapiens, NCI-H460, 72 h
T-47d = assay: cells; type: cell-based; conditions: Homo sapiens, T47D, 72 h
LnCAP [8] = assay: cells; type: cell-based; conditions: Homo sapiens, 72 h; remark: listed apart in the source
HPAX0991 = type: in vivo; conditions: HPAX0991, Pancreatic, Rb present; 250 mg/kg qd
BT-483 [9] = assay: cells; type: cell-based; conditions: Homo sapiens, BT-483, 72 h
CDK5/p25 = conditions: cited from earlier work
CDK4 = target: T1, CDK4 (Homo sapiens, UniProt P11802); assay: KINOMEscan binding assay; conditions: Supplementary Table 1A
T1 construct: purchased DiscoveRx (KINOMEscan)

A2058 = assay: cells; type: cell-based; conditions: Homo sapiens, A2058, 72 h
Pharmacokinetics in mice = type: in vivo; conditions: 75 mg/kg once daily, data not shown
CHP-212 = assay: cells; type: cell-based; conditions: Homo sapiens, CHP-212, 72 h
MGH049 = assay: cells; type: cell-based; conditions: MGH049, 72 h
COR-L105 = assay: cells; type: cell-based; conditions: Homo sapiens, COR-L105, 72 h
HBRX1600 = type: in vivo; conditions: HBRX1600, Breast, TNBC, Rb present; 250 mg/kg qd
KYSE30 = assay: cells; type: cell-based; conditions: Homo sapiens, KYSE-30; KYSE30, 72 h
MGH051 = assay: cells; type: cell-based; conditions: MGH051, 72 h
BT-483 [10] = assay: cells; type: cell-based; conditions: Homo sapiens, BT-483, 72 h; remark: listed apart in the source
NCI-H1975 [11] = assay: cells; type: cell-based; conditions: Homo sapiens, NCI-H1975, read-out: Percent inhibition
TE-10 [12] = assay: cells; type: cell-based; conditions: Homo sapiens, TE-10, 72 h; remark: listed apart in the source
in vivo = conditions: male, rat, po
KYSE150 = assay: cells; type: cell-based; conditions: Homo sapiens, KYSE-150; KYSE150, 72 h
KYSE450 = assay: cells; type: cell-based; conditions: Homo sapiens, KYSE-450; KYSE450, 72 h
SEM cells = assay: cells; type: cell-based; conditions: ALL, dominant CDK6, read-out: IC50, mean ± SD
MOLM-13 = assay: cells; type: cell-based; conditions: Homo sapiens; MOLM-13, AML, dominant CDK6; read-out: IC50, mean ± SD
T47D = assay: cells; type: cell-based; conditions: Homo sapiens, ER+ BC, dominant CDK4, read-out: IC50, mean ± SD

T1 sequence (P11802 whole entry): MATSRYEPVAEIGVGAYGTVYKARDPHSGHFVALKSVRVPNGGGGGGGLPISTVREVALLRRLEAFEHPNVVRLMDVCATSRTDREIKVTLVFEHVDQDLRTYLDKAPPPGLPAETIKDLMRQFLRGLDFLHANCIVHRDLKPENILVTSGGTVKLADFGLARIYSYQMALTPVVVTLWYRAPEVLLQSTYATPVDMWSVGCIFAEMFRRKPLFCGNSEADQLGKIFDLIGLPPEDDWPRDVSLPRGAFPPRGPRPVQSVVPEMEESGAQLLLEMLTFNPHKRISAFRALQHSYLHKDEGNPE

CN(C)C(=O)c1cc2cnc(Nc3ccc(N4CCNCC4)cn3)nc2n1C1CCCC1 [Ribociclib, 7-cyclopentyl-2-(5-piperazin-1-yl-pyridin-2-ylamino)-7H-pyrrolo[2,3-d]pyrimidine-6-carboxylic acid dimethylamide]
activity against CDK9/cyclin T1 (CDK9/cyclin T1): far less active | IC50 (A-375): 2.68 µM | IC50 (SK-MEL-28): > 10 µM | T/C (HBCx-15): 108 | IC50 (A549): 1.2 µM | IC50 (NCI-H3122): 2 µM | IC50 (TE-10 [1]): 1.01 µM | IC50 (VCAP [2]): > 10 µM | IC50 (NCI-H23): > 10 µM | T/C (HPAX1317): 32 | IC50 (SK-MEL-30): 1 µM | IC50 (LnCAP [3]): 1 µM | IC50 (NCI-H1975 [4]): > 10 µM | IC50 (TE-5): > 10 µM | IC50 (TE-8 [5]): 2.44 µM | IC50 (MCF-7): 0.18 µM | IC50 (TE-8 [6]): > 10 µM | IC50 (OE33): > 10 µM | IC50 (VCAP [7]): > 10 µM | IC50 (NCI-H460): > 10 µM | IC50 (T-47d): 0.25 µM | IC50 (LnCAP [8]): 0.18 µM | T/C (HPAX0991): 11 | IC50 (BT-483 [9]): > 10 µM | activity against CDK5/p25 (CDK5/p25): far less active | affinity for CDK4, lower than that observed for abemaciclib (CDK4): ~10 fold | IC50 (A2058): > 10 µM | area under the concentration-time curve (Pharmacokinetics in mice): ~12,500 ng/mL × h | maximum serum concentration (Pharmacokinetics in mice): ~2700 ng/mL | IC50 (CHP-212): 0.28 µM | IC50 (MGH049): 0.54 µM | IC50 (COR-L105): > 10 µM | T/C (HBRX1600): 28 | IC50 (KYSE30): > 10 µM | IC50 (MGH051): 0.28 µM | IC50 (BT-483 [10]): > 10 µM | inhibition at 0.08 µM (NCI-H1975 [11]): 14% | inhibition at 1.25 µM (NCI-H1975 [11]): 42% | inhibition at 5 µM (NCI-H1975 [11]): 54% | inhibition at 10 µM (NCI-H1975 [11]): 61% | inhibition at […] (NCI-H1975 [11]): 20% and 28% and 37% and 49% | IC50 (TE-10 [12]): > 10 µM | Cmax (in vivo; 10 mg/kg): 110 ng/mL | Cmax (in vivo; 75 mg/kg): 1740 ng/mL | Cmax (in vivo; 150 mg/kg): 1680 ng/mL | IC50 (KYSE150): 0.55 µM | IC50 (KYSE450): > 10 µM

CC(=O)c1c(C)c2cnc(Nc3ccc(N4CCNCC4)cn3)nc2n(C2CCCC2)c1=O [Palbociclib, reference compound]
IC50 (SEM cells): 87 ± 28 µM | IC50 (MOLM-13): 47 ± 25 µM | IC50 (T47D): 66 ± 19 µM
